Values quoted from earlier work, collected in US20210369751A1, “BIOLOGICALLY ACTIVE COMPOSITIONS AND METHODS OF USING” (Mediwel Labs, LLC, priority 2020, published 2021).
“Also recorded” adds a separate entry of the source.

Experiments:
CD38 = molecular target: T1, CD38 (Homo sapiens, UniProt P28907); details: purified pharmaceutical grade flavonoids; competitive antagonists
T1 sequence (P28907 1-300): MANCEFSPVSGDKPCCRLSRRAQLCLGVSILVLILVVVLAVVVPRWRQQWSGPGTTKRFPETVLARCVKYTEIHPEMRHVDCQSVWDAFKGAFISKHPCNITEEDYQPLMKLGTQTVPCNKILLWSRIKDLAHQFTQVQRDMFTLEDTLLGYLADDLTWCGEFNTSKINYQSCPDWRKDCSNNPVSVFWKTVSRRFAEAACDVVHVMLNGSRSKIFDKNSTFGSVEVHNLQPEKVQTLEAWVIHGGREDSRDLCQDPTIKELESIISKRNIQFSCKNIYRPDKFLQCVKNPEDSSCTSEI

[1] = propranolol co-administered with 3 mg piperine
[2] = 20 mg piperine daily for seven days before 150 mg theophylline
[3] = 20 mg piperine daily for seven days before 300 mg phenytoin

| inhibition of CD38 and its catalytic activity (CD38) | elimination rate of theophylline with piperine pretreatment [2] | maximum concentration of theophylline, pretreated with piperine versus drug alone ([2]; six healthy volunteers) [times] | elimination of phenytoin with piperine pretreatment [3] | maximum concentration of phenytoin with piperine pretreatment [3] | time to maximum concentration of phenytoin with piperine pretreatment [3] | Compound | elimination rate of propranolol with piperine [1] | maximum blood concentration / blood levels of propranolol with piperine [1] |
| --- | --- | --- | --- | --- | --- | --- | --- | --- |
| potent inhibition | – | – | – | – | – | O=c1cc(-c2ccc(O)cc2)oc2cc(O)cc(O)c12 [apigenin] | – | – |
| – | significantly slowed down | 1.5 | significantly slower elimination | significantly higher concentrations | shorter time | O=C(/C=C/C=C/c1ccc2c(c1)OCO2)N1CCCCC1 [piperine] | did not affect the elimination rate; also recorded: without slowing down the drug elimination rate | increased two fold; also recorded: doubling its blood levels |
| potent inhibition | – | – | – | – | – | O=c1c(O)c(-c2ccc(O)c(O)c2)oc2cc(O)cc(O)c12 [quercetin] | – | – |
